According to patent US20230085307A1, “PYRIDAZINONE COMPOUND AND HERBICIDE” (NISSAN CHEMICAL CORPORATION, priority 2019, published 2023):

Tests used:
[1] = system: oval-leafed pondweed; experiment: Test Example 1: herbicidal activity, application before weed generation under submerged conditions (Table 16, symbol C); format: in vivo, oval-leafed pondweed (Monochoria vaginalis); conditions: amount of applied herbicide 320 g/ha
Method in brief: (§1)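 Emulsion formulation, water-diluted to set dose, was put onto the flooded surface (4 cm depth, alluvial soil) the same day weeds were sown and 2.5-leaf rice transplanted. After 3 weeks at 25-30 °C under glass, each species was rated 0 (≤5% kill) to 5 (≥90% kill).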

[2] = system: wild oat; experiment: Test Example 5: herbicidal effect by foliage application, plastic box (Table 20, symbol I); format: in vivo, wild oat (Avena fatua); conditions: 320 g/ha; for I: wild oat, herbicidal effect grade: foliage application, three weeks after application
Method in brief: (§2)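 Sow seeds spot-wise in sterilized diluvial soil; cover with ~1.5 cm soil. Grow 14 days in greenhouse, 25° C. to 30° C. Spray foliage with emulsion diluted to predetermined amount. Rate effect after 3 weeks.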

[3] = system: Italian ryegrass; experiment: Test Example 4: herbicidal effect by soil treatment (Table 19, symbol K); format: in vivo, Italian ryegrass (Lolium multiflorum); conditions: amount of applied herbicide 320 g/ha
Method in brief: (§3)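 Applied as a water-diluted emulsion, the compound was sprayed onto soil covering newly sown seeds. Evaluation came three weeks after application, in a greenhouse held at 25° C. to 30° C.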

[4] = system: lambsquarters; experiment: Test Example 5: herbicidal effect by foliage application, plastic box (Table 20, symbol O); format: in vivo, lambsquarters (Chenopodium album); conditions: 320 g/ha; for O: lambsquarters, herbicidal effect grade: foliage application, three weeks after application
Method in brief: as §2

[5] = system: Japanese bulrush; experiment: Test Example 1: herbicidal activity, application before weed generation under submerged conditions (Table 16, symbol B); format: in vivo, Japanese bulrush (Schoenoplectus juncoides); conditions: amount of applied herbicide 320 g/ha
Method in brief: as §1

[6] = system: southern crabgrass; experiment: Test Example 5: herbicidal effect by foliage application, plastic box (Table 20, symbol F); format: in vivo, southern crabgrass (Digitaria ciliaris); conditions: 320 g/ha; for F: southern crabgrass, herbicidal effect grade: foliage application, three weeks after application
Method in brief: as §2

[7] = system: redroot pigweed; experiment: Test Example 5: herbicidal effect by foliage application, plastic box (Table 20, symbol N); format: in vivo, redroot pigweed (Amaranthus retroflexus); conditions: 320 g/ha; for N: redroot pigweed, herbicidal effect grade: foliage application, three weeks after application
Method in brief: as §2

[8] = system: wild oat; experiment: Test Example 4: herbicidal effect by soil treatment (Table 19, symbol I); format: in vivo, wild oat (Avena fatua); conditions: amount of applied herbicide 320 g/ha
Method in brief: as §3

[9] = system: green foxtail; experiment: Test Example 4: herbicidal effect by soil treatment (Table 19, symbol G); format: in vivo, green foxtail (Setaria viridis); conditions: amount of applied herbicide 320 g/ha
Method in brief: as §3

[10] = system: windgrass; experiment: Test Example 4: herbicidal effect by soil treatment (Table 19, symbol L); format: in vivo, windgrass (Apera spica-venti); conditions: amount of applied herbicide 320 g/ha
Method in brief: as §3

[11] = system: rice flat sedge; experiment: Test Example 3: herbicidal effect by foliage application, Wagner pot (Table 18, symbol E); format: in vivo, rice flat sedge (Cyperus iria); conditions: for herbicidal effect on E: rice flat sedge: amount of applied herbicide 320 g/ha
Method in brief: (§4)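 Plants were sown in alluvial soil held under 0.1–0.5 cm standing water and grown 14 days in a greenhouse at 25–30 °C. An emulsifiable formulation, water-diluted to the set dose, was then sprayed onto the foliage, and effects were scored three weeks later using previously defined criteria.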

[12] = system: windgrass; experiment: Test Example 5: herbicidal effect by foliage application, plastic box (Table 20, symbol L); format: in vivo, windgrass (Apera spica-venti); conditions: foliage application, 320 g/ha, three weeks after application
Method in brief: as §2

[13] = system: chickweed; experiment: Test Example 4: herbicidal effect by soil treatment (Table 19, symbol P); format: in vivo, common chickweed (Stellaria media); conditions: amount of applied herbicide 320 g/ha
Method in brief: as §3

[14] = system: persian speedwell; experiment: Test Example 5: herbicidal effect by foliage application, plastic box (Table 20, symbol R); format: in vivo, Persian speedwell (Veronica persica); conditions: 320 g/ha; for R: persian speedwell, herbicidal effect grade: foliage application, three weeks after application
Method in brief: as §2

[15] = system: Japanese bulrush; experiment: Test Example 2: herbicidal activity, application during weed generation under submerged conditions (Table 17, symbol B); format: in vivo, Japanese bulrush (Schoenoplectus juncoides); conditions: AAH 320 g/ha; application during weed generation, submerged conditions
Method in brief: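 In this pot test, flooded alluvial soil (water depth 4 cm) holds all three species sown as a mixture. Once seedlings have one to two leaves, the compound's emulsion, thinned with water to the intended dose, is poured on the water; grading follows after three weeks on the earlier criteria.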

[16] = system: Chinese sprangletop; experiment: Test Example 3: herbicidal effect by foliage application, Wagner pot (Table 18, symbol D); format: in vivo, chinese sprangletop (Leptochloa chinensis); conditions: for herbicidal effect on D: Chinese sprangletop: amount of applied herbicide 320 g/ha
Method in brief: as §4

[17] = system: redroot pigweed; experiment: Test Example 4: herbicidal effect by soil treatment (Table 19, symbol N); format: in vivo, redroot pigweed (Amaranthus retroflexus); conditions: amount of applied herbicide 320 g/ha
Method in brief: as §3

[18] = foliage application after 14-day growth, evaluated three weeks after application

Row | Structure (SMILES) | Herbicidal effect, C: oval-leafed pondweed [1] | I: wild oat, herbicidal effect grade [2] | herbicidal effect, K: Italian ryegrass [3] | O: lambsquarters, herbicidal effect grade [4] | Herbicidal effect, B: Japanese bulrush [5] | F: southern crabgrass, herbicidal effect grade [6] | N: redroot pigweed, herbicidal effect grade [7] | herbicidal effect, I: wild oat [8] | herbicidal effect, G: green foxtail [9] | herbicidal effect, L: windgrass [10] | herbicidal effect on E: rice flat sedge [11] | L: windgrass, herbicidal effect grade [12] | herbicidal effect, P: chickweed [13] | R: persian speedwell, herbicidal effect grade [14] | herbicidal effect rating, B: Japanese bulrush [15] | herbicidal effect on D: Chinese sprangletop [16] | herbicidal effect, N: redroot pigweed [17] | also measured
1 | CCCC(=O)Oc1c(C)nn(C)c(=O)c1-c1c(-c2ccccc2OC)sc2cc(F)ccc12 [3-004] | 3 (Herbicidal rate of 40% or more and less than 70%) | 4 (Herbicidal rate of 70% or more and less than 90%) | 5 (Herbicidal rate of 90% or more (almost completely withered)) | 5 (Herbicidal rate of 90% or more (almost completely withered)) | 3 (Herbicidal rate of 40% or more and less than 70%) | 3 (Herbicidal rate of 40% or more and less than 70%) | 5 (Herbicidal rate of 90% or more (almost completely withered)) | 3 (Herbicidal rate of 40% or more and less than 70%) | 4 (Herbicidal rate of 70% or more and less than 90%) | 5 (Herbicidal rate of 90% or more (almost completely withered)) | 5 (Herbicidal rate of 90% or more (almost completely withered)) | 5 (Herbicidal rate of 90% or more (almost completely withered)) | 5 (Herbicidal rate of 90% or more (almost completely withered)) | 5 (Herbicidal rate of 90% or more (almost completely withered)) | 2 (Herbicidal rate of 20% or more and less than 40%) | 4 (Herbicidal rate of 70% or more and less than 90%) | 5 (Herbicidal rate of 90% or more (almost completely withered)) | –
2 | COc1ccc(-c2sc3cc(F)ccc3c2-c2c(O)c(C)nn(C)c2=O)cc1 [3-005] | 4 (Herbicidal rate of 70% or more and less than 90%) | 3 (Herbicidal rate of 40% or more and less than 70%) | 5 (Herbicidal rate of 90% or more (almost completely withered)) | 5 (Herbicidal rate of 90% or more (almost completely withered)) | 4 (Herbicidal rate of 70% or more and less than 90%) | 3 (Herbicidal rate of 40% or more and less than 70%) | 5 (Herbicidal rate of 90% or more (almost completely withered)) | 0 (Herbicidal rate of 5% or less (almost no effect)) | 3 (Herbicidal rate of 40% or more and less than 70%) | 0 (Herbicidal rate of 5% or less (almost no effect)) | 5 (Herbicidal rate of 90% or more (almost completely withered)) | 3 (Herbicidal rate of 40% or more and less than 70%) | 5 (Herbicidal rate of 90% or more (almost completely withered)) | 5 (Herbicidal rate of 90% or more (almost completely withered)) | 3 (Herbicidal rate of 40% or more and less than 70%) | 3 (Herbicidal rate of 40% or more and less than 70%) | 5 (Herbicidal rate of 90% or more (almost completely withered)) | –
3 | CCCC(=O)Oc1c(C)nn(C)c(=O)c1-c1c(-c2ccccc2OCC)sc2cc(F)ccc12 [3-007] | 4 (Herbicidal rate of 70% or more and less than 90%) | 5 (Herbicidal rate of 90% or more (almost completely withered)) | 4 (Herbicidal rate of 70% or more and less than 90%) | 5 (Herbicidal rate of 90% or more (almost completely withered)) | 5 (Herbicidal rate of 90% or more (almost completely withered)) | 5 (Herbicidal rate of 90% or more (almost completely withered)) | 5 (Herbicidal rate of 90% or more (almost completely withered)) | 2 (Herbicidal rate of 20% or more and less than 40%) | 3 (Herbicidal rate of 40% or more and less than 70%) | 5 (Herbicidal rate of 90% or more (almost completely withered)) | 5 (Herbicidal rate of 90% or more (almost completely withered)) | 5 (Herbicidal rate of 90% or more (almost completely withered)) | 5 (Herbicidal rate of 90% or more (almost completely withered)) | 5 (Herbicidal rate of 90% or more (almost completely withered)) | 4 (Herbicidal rate of 70% or more and less than 90%) | 5 (Herbicidal rate of 90% or more (almost completely withered)) | 4 (Herbicidal rate of 70% or more and less than 90%) | –
4 | CCCC(=O)Oc1c(C)nn(C)c(=O)c1-c1c(-c2ccc(OC)cc2)sc2c(F)cccc12 [4-006] | 0 (Herbicidal rate of 5% or less (almost no effect)) | – | – | – | 3 (Herbicidal rate of 40% or more and less than 70%) | – | – | – | – | – | – | – | – | – | 3 (Herbicidal rate of 40% or more and less than 70%) | – | – | herbicidal effect on I: wild oat (evaluation grade 0-5) [2, 18]: 0 (Herbicidal rate of 5% or less (almost no effect)); Herbicidal effect by soil treatment, K: Italian ryegrass [3]: 0 (Herbicidal rate of 5% or less (almost no effect)); herbicidal effect on O: lambsquarters (evaluation grade 0-5) [4, 18]: 3 (Herbicidal rate of 40% or more and less than 70%); herbicidal effect on F: southern crabgrass (evaluation grade 0-5) [6, 18]: 1 (Herbicidal rate of 5% or more and less than 20%); herbicidal effect on N: redroot pigweed (evaluation grade 0-5) [7, 18]: 5 (Herbicidal rate of 90% or more (almost completely withered)); Herbicidal effect by soil treatment, I: wild oat [8]: 0 (Herbicidal rate of 5% or less (almost no effect)); Herbicidal effect by soil treatment, G: green foxtail [9]: 4 (Herbicidal rate of 70% or more and less than 90%); Herbicidal effect by soil treatment, L: windgrass [10]: 0 (Herbicidal rate of 5% or less (almost no effect)); herbicidal effect on rice flat sedge (E) ([11]; 320 g/ha): 5 (Herbicidal rate of 90% or more (almost completely withered)); Herbicidal effect by soil treatment, P: chickweed [13]: 0 (Herbicidal rate of 5% or less (almost no effect)); herbicidal effect on R: persian speedwell (evaluation grade 0-5) [14, 18]: 3 (Herbicidal rate of 40% or more and less than 70%); herbicidal effect on Chinese sprangletop (D) ([16]; 320 g/ha): 5 (Herbicidal rate of 90% or more (almost completely withered)); Herbicidal effect by soil treatment, N: redroot pigweed [17]: 4 (Herbicidal rate of 70% or more and less than 90%)
